In EP0226985A2, “Method and reagent for determining testosterone as well as a monoclonal antibody suitable for this” (BOEHRINGER MANNHEIM GMBH, priority 1985, dated 1987):

Tests used:
[1] = tested on: monoklonaler Antikörper MAK 160 (von Klon 160, ECACC 85 12 1701) gegen Testosteron; test: Cross-reaction with other steroids, competitive ELISA on plates coated with Testosteron-3-carboxymethyloxim-RSA; type: binding, Maus; conditions: calculated from C = antigen concentration needed to reach 50 % of the maximum signal, relative to Testosteron
Method: (§1) Um die Anwesenheit und Spezifität von Antikörpern gegen Testosteron im Serum immunisierter Mäuse oder in dem Kulturüberstand der Hybridzellen oder in Ascites zu erkennen, wird ein ELISA-Verfahren als Testprinzip verwendet: Mikrotiterplatten werden mit 1 /ug Testosteron-3-carboxymethyloxim-RSA/ml Beschichtungspuffer (0,2 M Natriumcarbonat/-Bicarbonat, pH 9,3-9,5) bei 37° C eine Stunde lang beschichtet. Es wird 10 Minuten mit 0,9 % Natriumchloridlösung und 1 % Albuminlösung nachbehandelt. Anschließend wird mit 0,9 % Natriumchloridlösung gewaschen. Danach wird bei 37° C eine Stunde mit 100 /ul Probe inkubiert und erneut mit 0,9 % Natriumchloridlösung gewaschen. Um eine mögliche Kreuzreaktion mit anderen Steroiden zu prüfen, werden der Probelösung 100 µg - 1 /ug/ml des zu prüfenden Steroids zugesetzt. Eine Erniedrigung des Meßsignals in Gegenwart anderer Steroide bedeutet Kreuzreaktion. Es folgt eine weitere Inkubation (eine Stunde, 37° C) mit 450 mU/ml eines Schaf-Fabanti-- Maus-Fcγ-Peroxidase-Konjugats. Nach einem erneuten Waschschritt mit 0,9 % Natriumchlorid wird die Peroxidaseaktivität in üblicher Weise bestimmt (beispielsweise mit ABTS, 30 Minuten bei Raumtemperatur, abgelesen wird die Extinktionsdifferenz, Δ mE, bei 405 nm).
(§2) Der Test wird, wie in Beispiel 2 beschrieben, durchgeführt. […]

[2] = tested on: monoklonaler Antikörper MAK 97 (von Klon 97, ECACC 85 12 1702) gegen Testosteron; test: as above; type: binding, Maus; conditions: calculated from C = antigen concentration needed to reach 50 % of the maximum signal, relative to Testosteron
Method: as §1, §2

C[C@]12CCC(=O)C[C@@H]1CC[C@@H]1[C@@H]2CC[C@]2(C)[C@@H](O)CC[C@@H]12 [5α-Dihydrotestosteron]
Kreuzreaktion in % mit [1]: 4%
Kreuzreaktion in % mit [2]: 5%
